Assay results: PMC4623779, “1-Octen-3-ol – the attractant that repels” (F1000Research, 2015)
Changes are numbered by the printed parent chain.

Legend:
Assay type in all cases: cell-based
[1] = molecular target: T1, CquiOR114b-1 (co-expressed with CquiOrco) (Culex quinquefasciatus, UniProt A0A3G1CJK1); assay: two-electrode voltage clamp, Xenopus oocytes, current traces; conditions: agonist current, 1 to 10 µM, enantiomer not stated
T1 construct: full length, 405 residues (longer C-terminus); pGEMHE, Xenopus oocytes co-expressing CquiOrco; with Odorant receptor coreceptor
T1 sequence (A0A3G1CJK1 1-405): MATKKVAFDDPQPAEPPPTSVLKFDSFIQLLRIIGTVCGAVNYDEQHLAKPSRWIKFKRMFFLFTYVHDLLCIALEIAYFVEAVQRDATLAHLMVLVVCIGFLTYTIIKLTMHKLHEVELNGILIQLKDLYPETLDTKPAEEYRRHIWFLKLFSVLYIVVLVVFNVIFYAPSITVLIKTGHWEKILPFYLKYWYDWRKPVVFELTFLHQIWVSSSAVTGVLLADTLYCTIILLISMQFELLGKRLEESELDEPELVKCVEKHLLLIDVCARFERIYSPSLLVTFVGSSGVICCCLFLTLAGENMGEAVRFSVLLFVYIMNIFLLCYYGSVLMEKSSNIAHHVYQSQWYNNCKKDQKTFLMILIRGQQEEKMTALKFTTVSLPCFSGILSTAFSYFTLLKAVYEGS

[2] = molecular target: T2, CquiOR114b-2 (co-expressed with CquiOrco) (Culex quinquefasciatus, UniProt A0A3G1CJJ8); assay: as above; conditions: agonist current, 1 to 10 µM, enantiomer not stated
T2 construct: full length, 405 residues (longer C-terminus); pGEMHE, Xenopus oocytes co-expressing CquiOrco; with Odorant receptor coreceptor
T2 sequence (A0A3G1CJJ8 1-405): T1 sequence (A0A3G1CJK1 1-405) with L63W, G122E, D129N
Source text: two-electrode voltage clamp, Xenopus oocytes, current traces on CquiOR114b-2 (co-expressed with CquiOrco) | CquiOR114b-2 and CquiOrco (lower trace). Compounds were delivered in the following order | CquiOR114b-2 and CquiOrco (lower trace). Compounds were delivered in the following order: 1-octyn-3-ol

[3] = molecular target: T1, CquiOR114b-1 (co-expressed with CquiOrco); assay: two-electrode voltage clamp, Xenopus oocytes, concentration-response; conditions: agonist current, 1, 10 and 100 µM, holding -80 to -70 mV
[4] = molecular target: T3, CquiOR118b (co-expressed with CquiOrco) (Culex quinquefasciatus, UniProt A0A3G1CJJ7); assay: as above; conditions: agonist current, 0.01, 0.1 and 1 µM, holding -80 to -70 mV
T3 construct: full-length short version, 391 residues, shorter N-terminus than the VectorBase prediction CPIJ013954; pGEMHE, Xenopus oocytes co-expressing CquiOrco; with Odorant receptor coreceptor
T3 sequence (A0A3G1CJJ7 1-391): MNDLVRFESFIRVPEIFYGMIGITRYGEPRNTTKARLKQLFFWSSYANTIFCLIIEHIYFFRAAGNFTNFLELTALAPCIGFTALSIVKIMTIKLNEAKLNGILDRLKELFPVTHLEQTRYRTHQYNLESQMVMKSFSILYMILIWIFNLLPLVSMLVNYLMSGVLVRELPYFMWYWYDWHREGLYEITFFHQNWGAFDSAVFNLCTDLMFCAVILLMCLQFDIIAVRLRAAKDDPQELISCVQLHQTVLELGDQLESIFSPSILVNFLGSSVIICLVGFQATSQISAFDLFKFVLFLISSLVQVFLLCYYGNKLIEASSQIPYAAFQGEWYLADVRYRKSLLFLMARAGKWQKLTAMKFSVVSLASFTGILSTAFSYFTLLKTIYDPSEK

Row | Compound | two-electrode voltage clamp, Xenopus oocytes, current traces [1] | two-electrode voltage clamp, Xenopus oocytes, current traces [2] | two-electrode voltage clamp, Xenopus oocytes, concentration-response [3] | two-electrode voltage clamp, Xenopus oocytes, concentration-response [4]
1 | C=CC(O)CCCCC (centres unmarked) [1-octen-3-ol] | oocytes co-expressing CquiOR114b-1 and CquiOrco (top trace) | CquiOR114b-2 and CquiOrco (lower trace). Compounds were delivered in the following order | – | –
2 | C#CC(O)CCCCC (centres unmarked) [1-octyn-3-ol] | oocytes co-expressing CquiOR114b-1 and CquiOrco (top trace) | CquiOR114b-2 and CquiOrco (lower trace). Compounds were delivered in the following order: 1-octyn-3-ol | – | –
3 | CCCCCC(O)CC (centres unmarked) [3-octanol] | oocytes co-expressing CquiOR114b-1 and CquiOrco (top trace) | CquiOR114b-2 and CquiOrco (lower trace). Compounds were delivered in the following order | – | –
4 | C=C[C@H](O)CCCCC [(R)-1-octen-3-ol] | – | – | currents elicited by ( R)-1-octen-3-ol were significantly lower than those obtained with its antipode | robust responses were elicited by ( R)-1-octen-3-ol in a dose-dependent manner
5 | C#C[C@H](O)CCCCC [(R)-1-octyn-3-ol] | – | – | oocytes were challenged with enantiomers of 1-octen-3-ol, 1-octyn-3-ol, and 3-octanol | CquiOR118b showed dramatic enantioselectivity towards ( R)-as compared to ( S)-1-octyn-3-ol
6 | CCCCC[C@H](O)CC [(R)-3-octanol] | – | – | robust responses to 3-octanol, with responses to the ( R)- and ( S)-stereoisomers being almost indistinguishable | the responses to ( R)-3-octanol were relatively high
7 | C=C[C@@H](O)CCCCC [(S)-1-octen-3-ol] | – | – | significantly lower than those obtained with its antipode, ( S)-1-octen-3-ol | currents generated by its antipode, ( S)-1-octen-3-ol, were relatively very small
8 | C#C[C@@H](O)CCCCC [(S)-1-octyn-3-ol] | – | – | showed preference for ( S)-isomers of 1-octen-3-ol and 1-octyn-3-ol | CquiOR118b showed dramatic enantioselectivity towards ( R)-as compared to ( S)-1-octyn-3-ol
9 | CCCCC[C@@H](O)CC [(S)-3-octanol] | – | – | robust responses to 3-octanol, with responses to the ( R)- and ( S)-stereoisomers being almost indistinguishable | –
